Experimental data: patent US20240115557A1, “INHIBITORS OF RNA-GUIDED NUCLEASES AND USES THEREOF” (The Brigham and Women's Hospital, Inc., priority 2022, published 2024)

How the values were obtained:
[1] = molecular target: T1, SpCas9 (Streptococcus pyogenes serotype M1, UniProt Q99ZW2); test: eGFP disruption assay, SpCas9, U2OS.eGFP.PEST cells; assay type: cell-based; conditions: for Normalized Z rep1 / Z score Rep1: replicate 1; for SpCas9 eGFP disruption Rep1: replicate 1, raw readout; for Normalized Z rep2 / Z socre Rep2: replicate 2; for SpCas9 eGFP disruption Rep2: replicate 2, raw readout
In short: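 Rescue of eGFP signal lost through Cas9-induced NHEJ indels serves as the inhibition read-out, after 24 h compound exposure (20 μM for hits, variable for dose-response). Editing was delivered by nucleofection into U2OS.eGFP.PEST cells as SpCas9/gRNA plasmids (300/30 ng) or RNP (10/12 pmol). Toxic and autofluorescent compounds were excluded.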

[2] = molecular target: T1, SpCas9; test: Strand displacement assay (SDA) / cumulative activity assay (CAA), SpCas9 primary screen; assay type: biochemical; conditions: Primary Screen (150 min); for Normalized Z score 1: replicate 1; for Normalized Z score 2: replicate 2
Experimental: Screening of inhibitors was via a high throughput pipeline, as depicted in FIG. 29. The first screening is via a strand displacement assay (SDA) for detecting nuclease activity (FIG. 27A, 28A). The Cpf1/Cas12 protein/DNA complex has a different structure from Cas9 and requires optimization of the potential fluorophore attachment sites (Yamano, T et al., Cell, 2016). (FIG. 28A). Next screened compounds are evaluated in an eGFP cell assay, and for eGFP dose. Those compounds are further narrowed via a HiBiT assay and finally evaluated in the surveyor assay. SAR evaluations are performed to arrive at lead compounds for further evaluations and variations. General methodology for the assays is as described in at [0253]-[0301] of U.S. Patent Application 62/831,143 filed Apr. 8, 2019, incorporated herein by reference.
The 3′ end of the displacing single-stranded DNA was labeled with a quencher. Following nuclease cleavage of the substrate, the 3′-labeled quenching DNA strand (present in excess) could outcompete the weakly held 3′ strand to anneal to the 5′ strand. The resulting FRET fluorescence quenching provides an optical readout for nuclease activity (FIG. 62A).
Typically, SpCas9: gRNA (1:1.2 ratio) RNP was pre-formed at 1 μM in Cas9 assay buffer (20 mM Tris-HCl, pH=7.5, 100 mM KCl, 5 mM MgCl2) for 5 min at 4° C. before diluting to 10 nM in Cas9 assay buffer (2× final concentration). 25 μL of the Cas9 2× stock was manually dispensed to a black 384-well plate (Corning 3575) using electronic pipette. […] Following this, pre-annealed Alexa-Fluor 647 labeled substrate and quencher were also diluted to 1 nM and 5 nM in Cas9 assay buffer, respectively (2× stock solution). Next, 25 μL of the substrate/quencher solution was added manually to each well of the Cas9-containing 384-well plates using an electronic pipette and was incubated at 37° C. for 2.5 h. Fluorescent signals were read with the microplate reader set to read Alexa-Fluor 647 fluorescence. Assay was performed similarly with SaCas9 and FnCas12a using the respective enzyme, gRNA, substrate, and quencher oligos. […]

[3] = Cas9 = lower control, Ctrl = upper control
[4] = normalized, lower control about 0, upper control about 1

T1 sequence (Q99ZW2 whole entry): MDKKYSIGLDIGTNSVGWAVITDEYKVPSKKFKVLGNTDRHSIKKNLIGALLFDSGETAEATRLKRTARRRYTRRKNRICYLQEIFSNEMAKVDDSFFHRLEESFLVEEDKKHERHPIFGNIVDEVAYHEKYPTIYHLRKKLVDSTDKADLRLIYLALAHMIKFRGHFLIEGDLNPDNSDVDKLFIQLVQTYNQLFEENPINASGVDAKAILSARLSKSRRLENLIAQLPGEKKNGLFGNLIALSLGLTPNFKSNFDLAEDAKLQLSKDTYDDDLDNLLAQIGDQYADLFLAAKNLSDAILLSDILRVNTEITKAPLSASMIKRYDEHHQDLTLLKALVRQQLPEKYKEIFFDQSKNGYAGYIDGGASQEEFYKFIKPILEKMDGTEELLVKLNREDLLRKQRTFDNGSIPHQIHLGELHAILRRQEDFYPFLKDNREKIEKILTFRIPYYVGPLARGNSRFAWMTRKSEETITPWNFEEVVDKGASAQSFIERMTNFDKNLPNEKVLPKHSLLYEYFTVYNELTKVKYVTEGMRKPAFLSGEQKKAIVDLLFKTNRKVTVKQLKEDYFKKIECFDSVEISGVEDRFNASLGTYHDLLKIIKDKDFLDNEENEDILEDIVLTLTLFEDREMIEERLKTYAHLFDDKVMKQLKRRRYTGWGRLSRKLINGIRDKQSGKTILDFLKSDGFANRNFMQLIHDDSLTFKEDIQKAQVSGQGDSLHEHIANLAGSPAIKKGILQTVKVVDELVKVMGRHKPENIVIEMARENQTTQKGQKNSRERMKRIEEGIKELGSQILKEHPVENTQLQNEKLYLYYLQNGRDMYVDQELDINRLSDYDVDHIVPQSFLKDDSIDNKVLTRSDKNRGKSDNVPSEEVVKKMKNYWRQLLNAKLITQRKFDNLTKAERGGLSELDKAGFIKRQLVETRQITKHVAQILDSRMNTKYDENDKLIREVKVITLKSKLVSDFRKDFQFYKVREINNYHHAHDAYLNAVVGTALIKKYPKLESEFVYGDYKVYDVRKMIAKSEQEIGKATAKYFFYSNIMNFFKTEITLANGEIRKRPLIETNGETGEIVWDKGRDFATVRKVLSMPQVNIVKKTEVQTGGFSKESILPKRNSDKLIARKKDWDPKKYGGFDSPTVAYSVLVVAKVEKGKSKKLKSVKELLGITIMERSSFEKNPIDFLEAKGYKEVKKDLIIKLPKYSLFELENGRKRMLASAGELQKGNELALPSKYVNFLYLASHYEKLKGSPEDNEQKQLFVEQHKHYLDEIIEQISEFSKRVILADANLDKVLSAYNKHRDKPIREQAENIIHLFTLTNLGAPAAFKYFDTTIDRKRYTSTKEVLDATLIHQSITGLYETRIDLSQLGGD

Row | Compound | Normalized Z rep1 [1] | Z score Rep1 [1] | SpCas9 eGFP disruption Rep1 [1] | Normalized Z rep2 [1] | Z socre Rep2 [1] | SpCas9 eGFP disruption Rep2 [1] | Average Normalized Z score [2] | avg z score primary [2] | Normalized Z score 1 [2] | Normalized Z score 2 [2] | SpCas9 eGFP disruption Rep1 [1, 3] | Normalized Z rep1 [1, 4] | SpCas9 eGFP disruption Rep2 [1, 3] | Normalized Z rep2 [1, 4] | Average Normalized Z score ([2]; average of replicates)
1 | CNS(=O)(=O)c1ccc2nc(NC(=O)c3ccc(N4C(=O)CCC4=O)cc3)sc2c1 [Compound G786-1562] | −0.26 | −2.41 | 57.872 | −0.25 | −3.72 | 60.132 | 0.06 | 6.00 | 0.05 | 0.07 |  |  |  |  | 
2 | Cc1ccc(-c2nc(CN3CCCC(C(=O)Nc4cc(C)ccc4O)C3)no2)cc1 (stereo not drawn) [Compound J065-2258] | −0.12 | −1.25 | 73.517 | −0.06 | −1.43 | 74.702 | 0.12 | 5.05 | 0.10 | 0.14 |  |  |  |  | 
3 | C=Cc1ccc(CSC2=NS(=O)(=O)c3ccccc3N2)cc1 [Compound K261-1443] | −0.17 | −1.74 | 72.619 | −0.19 | −4.27 | 72.337 | 0.16 | 4.25 | 0.15 | 0.17 |  |  |  |  | 
4 | CCc1cccc(-n2nnnc2N2CCN(C(=O)Nc3ccc(C)cc3Cl)CC2)c1 [Compound L378-0331] | −0.41 | −2.70 | 68.157 | 0.06 | 0.61 | 77.513 | 0.19 | 5.44 | 0.16 | 0.21 |  |  |  |  | 
5 | CC(C)CNC(=O)c1ccc(Oc2ccnc(-c3ccc(F)cc3)n2)cc1 [Compound L662-0597] | 0.00 | 0.02 | 76.108 | −0.15 | −1.39 | 73.535 | 0.37 | 7.15 | 0.36 | 0.37 |  |  |  |  | 
6 | O=C(NCC1CCCO1)c1ccc(Oc2ccnc(-c3ccc(F)cc3)n2)cc1 (stereo not drawn) [Compound L662-0604] |  | 0.38 |  |  | 0.09 |  | 0.35 | 6.87 | 0.33 | 0.38 | 77.166 | 0.06 | 76.48 | 0.01 | 
7 | O=C(Nc1ccc(F)c(Cl)c1)c1ccc(Oc2ccnc(-c3ccc(F)cc3)n2)cc1 [Compound L662-0654] | −0.13 | −0.84 | 73.611 | −0.14 | −1.37 | 73.579 | 0.30 | 5.79 | 0.30 | 0.29 |  |  |  |  | 
8 | COc1ccc(OC)c(CNC(=O)c2ccc(Oc3ccnc(-c4cccc(F)c4)n3)cc2)c1 [Compound L662-0973] |  | 0.85 |  |  | 1.27 |  | 0.29 | 5.63 | 0.35 | 0.24 | 78.528 | 0.13 | 78.814 | 0.13 | 
9 | O=C(NCc1ccc(F)cc1)c1ccc(Oc2ccnc(-c3cccc(F)c3)n2)cc1 [Compound L662-0977] | −0.03 | −0.18 | 75.519 | −0.08 | −0.72 | 74.871 | 0.44 | 8.64 | 0.42 | 0.47 |  |  |  |  | 
10 | COc1ccc(CNC(=O)c2ccc(Oc3ccnc(-c4cccc(F)c4)n3)cc2)c(OC)c1 [Compound L662-0987] |  | 1.06 |  |  | 1.78 |  | 0.37 | 7.18 | 0.38 | 0.36 | 79.157 | 0.16 | 79.829 | 0.19 | 
11 | CCC(C)NC(=O)c1cccc(Oc2cc(-c3ccccc3)ncn2)c1 (stereo not drawn) [Compound L663-0996] | −0.03 | −0.21 | 75.44 | −0.37 | −3.54 | 69.294 | 0.39 | 7.57 | 0.43 | 0.35 |  |  |  |  | 
12 | O=C(NC1CCCCC1)c1cccc(Oc2cc(-c3ccccc3)ncn2)c1 [Compound L663-0999] |  | 0.55 |  |  | −1.03 |  | 0.40 | 7.77 | 0.44 | 0.36 | 77.659 | 0.08 | 74.256 | −0.11 | 
13 | O=C(NC1CCCC1)c1cccc(Oc2cc(-c3ccccc3)ncn2)c1 [Compound L663-1002] | −0.26 | −1.70 | 71.095 | 0.01 | 0.05 | 76.396 | 0.27 | 5.18 | 0.22 | 0.31 |  |  |  |  | 
14 | Cc1ccc(C(C)NC(=O)c2cccc(Oc3cc(-c4ccccc4)ncn3)c2)cc1 (stereo not drawn) [Compound L663-1062] | −0.10 | −0.64 | 74.182 | −0.07 | −0.70 | 74.913 | 0.28 | 5.51 | 0.28 | 0.29 |  |  |  |  | 
15 | O=C(NCc1ccc2c(c1)OCO2)c1cccc(Oc2cc(-c3ccccc3)ncn2)c1 [Compound L663-1076] | −0.11 | −0.69 | 74.045 | −0.01 | −0.12 | 76.06 | 0.40 | 7.72 | 0.38 | 0.41 |  |  |  |  | 
16 | COc1ccc(-c2cc(N3CCN(C(=O)c4ccc(C(C)(C)C)cc4)CC3)ncn2)cc1 [Compound M130-0012] | −0.10 | −0.67 | 74.104 | −0.03 | −0.27 | 75.755 |  | 20.61 | 0.28 | 0.28 |  |  |  |  | 0.28
17 | COc1ccc(C2CNC(=O)C2)cc1OC1CCCC1 (stereo not drawn) [Compound S2127] | −0.11 | −0.74 | 73.9 | −0.28 | −2.66 | 71.027 |  | 3.63 | 0.17 | 0.17 |  |  |  |  | 0.17
18 | Cc1ncc(-c2ccnc(Nc3ccc(S(C)(=O)=O)cc3)n2)n1C(C)C [Compound S2621] | −1.68 | −10.98 | 43.978 | −1.71 | −16.40 | 43.815 |  | 6.88 | 0.43 | 0.26 |  |  |  |  | 0.35
